# Columns and labels:
# [1] = system: histamine—induced lethality in guinea pigs; experiment: prevention of histamine-induced lethality in guinea pigs; type: in vivo; conditions: standard animal model
# [2] = Stability testing for crystalline polymorph form 1; type: physicochemical; conditions: 25, 30 and 40° C. at relative humidities of 60%, 60% and 75%, respectively
smiles,measurement,setting,value
"Clc1ccc2c(c1)CCc1cccnc1C2=C1CCNCC1 [form 1, 8-chloro-6,11-dihydro-11-(4-piperidylidene)-5H-benzo[5,6]cyclohepta[1,2-b]pyridine]",antihistaminic properties: prevention of histamine—induced lethality,[1],demonstrated
same,change from initial sample % form 1 and related compounds,[2],< 1%

# Source: US6506767B1, “8-chloro-6,11-dihydro-11-(4-piperidylidine)-5H-benzo[5,6]cyclohepta[1-2-b] pyridine” (Schering Corporation, priority 1997, dated 2003)
